Data on 1 compound can be found in PMC9482650, “Quantitative fragmentomics allow affinity mapping of interactomes” (Nature Communications, 2022).

The target of this test is SYNJ2BP PDZ (Homo sapiens, UniProt P57105). The test can be described thus: Holdup assay. The format is binding.

Molecules are shown by their SMILES.

Chain of SYNJ2BP PDZ (P57105 13-100 limits assumed): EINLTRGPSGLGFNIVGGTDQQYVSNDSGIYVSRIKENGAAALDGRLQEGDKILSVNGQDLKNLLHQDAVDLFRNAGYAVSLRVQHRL

In general, Kd refers to the concentration at which binding is half-saturated. As to `CC(C)C[C@H](NC(=O)[C@H](CCC(N)=O)NC(=O)[C@@H](NC(=O)[C@H](CCC(=O)O)NC(=O)[C@H](CCCNC(=N)N)NC(=O)[C@H](CCCNC(=N)N)NC(=O)[C@@H](NC(=O)[C@H](CCCNC(=N)N)NC(=O)[C@H](CO)NC(=O)[C@@H](N)CO)[C@@H](C)O)[C@@H](C)O)C(=O)O` [HPV16E6], the affinity, expressed as Kd, was 6.56 µM.
